Values joined by “and” are separate entries in the source; they are usually repeats but may differ in a detail not shown here. Equal entries are not always repeated. Active and inactive are the calls of the source.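 The calls were made as follows: active = IC50 of 25 µM or lower, counted as toxic to worms; inactive = the rest.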

This data set relates to C. elegans VP596 worm health composite score, 20-22 h. The data set is described as follows: C. elegans worm health toxicity scoring, SAR follow-up, cytotoxicity control for SKN-1 inhibitor project, whole organism, strain VP596, composite health score, round 3 (AID 743062).
As a reminder, the IC50 is the point on the concentration scale where inhibition reaches its midpoint. As for `Cc1ccc(-c2csc(-c3cccnc3)n2)cc1`, the IC50 is > 64 µM (inactive).

`COc1ccc(-c2nc(-c3ccncc3)sc2C)cc1`: the IC50 was > 64 µM (inactive).

As to `Cc1sc(C2CCNCC2)nc1-c1ccccc1`, the IC50 is > 64 µM (inactive).

With `Fc1ccc(-c2csc(-c3ccccc3)n2)cc1`, the IC50 is 28.4 µM (inactive).

With `CC(C)(C)c1csc(-c2ccncc2)n1`, the IC50 is > 64 µM (inactive).

`COc1ccc(-c2csc(-c3ccccc3)n2)cc1`: the IC50 was > 64 µM (inactive).

`Clc1ccc(-c2csc(C3CCNCC3)n2)cc1`: the IC50 was > 64 µM (inactive).

`c1cc(-c2nc(-c3nccs3)cs2)ccn1`: the IC50 is > 64 µM (inactive).

Regarding `CCCc1cc(-c2nc(-c3ccc(C)cc3)cs2)ccn1`, the IC50 was > 64 µM (inactive).

With `N#Cc1ccc(-c2csc(-c3ccncc3)n2)cc1`, the IC50 was 37.2 µM (inactive).

Regarding `CCCc1cc(-c2nc(-c3ccc(NS(C)(=O)=O)cc3)cs2)ccn1`, the IC50 was > 64 µM (inactive).

For `Clc1ccc(-c2csc(-c3ccncc3)n2)cc1Cl`, the IC50 is 10.5 µM and 33.7 µM (inactive).

Regarding `Clc1ccc(-c2csc(-c3ccccn3)n2)cc1`, the IC50 was 23.1 µM and > 64 µM (inactive).

`COc1ccc(-c2csc(-c3cccnc3)n2)cc1`: the IC50 was 36.4 µM (inactive).

As for `Cc1sc(-c2ccncc2)nc1-c1ccccc1`, the IC50 is 48.3 µM (inactive).

For the compound `Cc1ccc(-c2csc(-c3ccccc3)n2)cc1`, the IC50 was > 64 µM (inactive).

Turning to `c1ccc(-c2csc(-c3cccnc3)n2)cc1`, the IC50 is 53.9 µM (inactive).

In the case of `Clc1ccc(-c2csc(-c3ccncc3)n2)c(Cl)c1`, the IC50 is > 64 µM (inactive).

On to `c1cc(-c2nc(C3CC3)cs2)ccn1`, for which the IC50 is > 64 µM (inactive).

As for `Clc1ccc(-c2csc(-c3ccccc3)n2)cc1`, the IC50 was > 64 µM (inactive).

As for `c1ccc(-c2csc(C3CCNCC3)n2)cc1`, the IC50 is > 64 µM (inactive).

Consider `c1ccc(-c2nc(-c3cccnc3)cs2)cc1`, for which the IC50 was > 64 µM (inactive).

As for `Cc1cccc(-c2csc(-c3ccncc3)n2)c1`, the IC50 was 50.8 µM (inactive).

For the compound `Cc1ccc(-c2csc(-c3ccncc3)n2)cc1`, the IC50 is 54.6 µM (inactive).

Consider `Fc1ccc(-c2csc(-c3cccnc3)n2)cc1`, for which the IC50 was 35.6 µM (inactive).

Turning to `Cc1csc(-c2ccncc2)n1`, the IC50 is > 64 µM (inactive).

Turning to `COc1ccc(-c2csc(-c3ccncc3)n2)cc1`, the IC50 was > 64 µM (inactive).

With `Clc1ccc(-c2csc(-c3ccncc3)n2)cc1`, the IC50 was 32.7 µM (inactive) and 11.5 µM.

For `Cc1ccc(-c2csc(C3CCNCC3)n2)cc1`, the IC50 is > 64 µM (inactive).

For the compound `Cc1ccc(-c2nc(-c3ccncc3)sc2C)cc1`, the IC50 is > 64 µM (inactive).

`c1ccc(-c2csc(-c3ccccn3)n2)cc1`: the IC50 was > 64 µM (inactive).

As to `Fc1ccc(-c2csc(-c3ccncc3)n2)cc1`, the IC50 was 53.6 µM (inactive).

With `Clc1ccc(-c2csc(-c3cccnc3)n2)cc1`, the IC50 was 11.1 µM and 29.4 µM (inactive).

Take `COc1cccc(-c2csc(-c3ccncc3)n2)c1`: the IC50 is 55.7 µM (inactive).

As to `COc1ccc(-c2csc(-c3ccccn3)n2)cc1`, the IC50 was 21.4 µM.

For the compound `Fc1ccc(-c2csc(-c3ccccn3)n2)cc1`, the IC50 was 42 µM (inactive).

In the case of `Cc1ccc(-c2csc(-c3ccccn3)n2)cc1`, the IC50 was > 64 µM (inactive).

As to `c1ccc(-c2csc(-c3ccncc3)n2)cc1`, the IC50 is 42.4 µM (inactive).

Turning to `COC(=O)c1ccc(-c2csc(-c3ccncc3)n2)cc1`, the IC50 is > 64 µM (inactive).

With `Clc1ccccc1-c1csc(-c2ccncc2)n1`, the IC50 was 33.2 µM (inactive).

On to `COc1ccc(-c2csc(C3CCNCC3)n2)cc1`, for which the IC50 is > 64 µM (inactive).

In the case of `Cc1sc(-c2ccncc2)nc1-c1ccc(Cl)cc1`, the IC50 is > 64 µM (inactive).

For `Cc1sc(-c2ccncc2)nc1-c1ccc(F)cc1`, the IC50 is > 64 µM (inactive).

As for `Cc1ccccc1-c1csc(-c2ccncc2)n1`, the IC50 was 55.7 µM (inactive).

Take `COc1ccccc1-c1csc(-c2ccncc2)n1`: the IC50 is 48.4 µM (inactive).

Take `Fc1ccc(-c2csc(C3CCNCC3)n2)cc1`: the IC50 is > 64 µM (inactive).

For `FC(F)(F)c1ccc(-c2csc(-c3ccncc3)n2)cc1`, the IC50 is 20.3 µM.

With `Clc1cccc(-c2csc(-c3ccncc3)n2)c1`, the IC50 is 16 µM.
